Source: patent publication US9315546B2, “Growth hormone secretatogue receptor antagonists and uses thereof” (The Administrators of the Tulane Educational Fund, priority 2010, dated 2016)
“And” between values parts separate entries of the source, which are not always exact repeats. Equal entries are not always repeated. Where a SMILES comes first, the peptide text is derived from it. Where no end group is shown, it is not given here. [ ]: non-standard residue; d: D form. d2Nal = N[C@H](Cc1ccc2ccccc2c1)C(=O)O

Columns and labels:
[1] = target: T1, human ghrelin receptor type 1a (GHS-R1a) (Homo sapiens, UniProt Q92847); experiment: Receptor binding, displacement of radiolabelled ghrelin, HEK-293 cell membranes; conditions: for % INH, Ghrelin/GHS Antagonist Receptor Activity: concentration not given
T1 construct: expressed in transfected cells; host or cells: HEK-293 cells (membranes)

[2] = target: T2, Ghrelin/GHRP/GHS Receptor (Rattus norvegicus, UniProt O08725); experiment: GH release from isolated pituitary glands, pituitary incubation method; assay type: cell-based
Method: Hormonal activities were obtained from in vitro studies using pituitaries of 20 day old CD-1 strain Sprague Dawley female rats. Two pituitaries were incubated for a total of 4-6 hours. Medium was removed each hour for RIA of GH level and fresh medium was added again. After two one hour preincubation periods (P1-P2), the vehicle/peptides were added to two one hour incubations (I3-I4). Peptide activity was calculated as the change in the hormonal level (delta) between I3+I4 and P2. For antagonist activity, the incubation was continued for 2 additional hours (I5-I6) where both the peptide and a stimulator of GH secretion was added and the antagonist activity was calculated as the change in the hormonal level (delta) between I5+I6 and P2. The peptides were assayed in triplicate and the hormone was assayed in duplicate. Each value recorded represents the mean of 6. The GH RIA reagents were distributed by the NIH. Control data was collected from isolated pituitary glands treated with only the corresponding vehicle in the absence of peptide or stimulator. Control stimulated data was collected from isolated pituitary glands treated with stimulator alone in the absence of any peptide.

[3] = target: T3, hypothalamic ghrelin receptor (Rattus norvegicus, UniProt O08725); experiment: Spontaneous and ghrelin-stimulated GH secretion after icv ghrelin analogs in adult male rats; assay type: in vivo; design: from tissue; host or cells: whole animal (adult male rats); conditions: ghrelin analog 10 μg icv, 6-h sampling
Method: (§1) In vivo effects were measured on spontaneous and ghrelin-stimulated GH secrtion over a 6-h sampling period, and food intake monitored hourly over a 5-h period and body weight change over 24 h.

[4] = target: T3, hypothalamic ghrelin receptor; experiment: Food intake and body weight change after icv ghrelin analogs in adult male rats; assay type: in vivo; design: from tissue; host or cells: whole animal (adult male rats); conditions: ghrelin analog 10 μg icv, monitored hourly over 5 h
Method: as §1

[5] = target: T2, Ghrelin/GHRP/GHS Receptor; experiment: In vivo GH release in rat after i.v. peptide (serum GH by RIA)
Method: For the in vivo assay of GH Release in rat, immature female Sprague Dawley rats were obtained from Charles River from Wilmington, Mass. After arrival they were housed at 25° C. with a 14:10 h light:dark cycle. Water and Purina rat chow were available at libitum. Pups were weaned at 21 days of age.
Immature twenty six day old female Sprague Dawley rats, 3-6 rats per treatment dose, were pretreated with pentobarbital 20 minutes before iv injection of vehicle/peptide or peptide plus stimulator. Injection was made as a 0.1 ml solution. For the non-pentobarbital treated rat assay, peptides were administered iv into the tail vein of conscious rats. All animals were sacrificed by guillotine after iv peptide or vehicle. Trunk blood was collected at +10-15 minutes […], allowed to clot, centrifuged and serum stored until assayed for GH levels by RIA. The GH RIA reagents were distributed by the NIH. Control data was collected from rats treated with only the corresponding vehicle in the absence of peptide or stimulator. Control stimulated data was collected from rats treated with stimulator alone in the absence of any peptide.

[6] = target: T2, Ghrelin/GHRP/GHS Receptor; experiment: GH release from cell culture of pituitary cells; assay type: cell-based; design: After dispersion, the cells were collected by centrifugation, wash with DMEM and placed into culture well; endogenous in cells; host or cells: dispersed primary rat pituitary cells, 4 days in culture
Method: In vitro GH Release-Female rats of the CD-1 strain were housed in a constant temperature room at 24° C. with 14 h light and 10 h darkness. The rats were fed Purina Rat chow and water at libitum. All studies were started between 0800-1000 hours. Pituitaries of mature female Sprague Dawley rats were rapidly removed after decapitation, neurointermediate lobe discarded and then placed in a pH 7.4 buffer. The pituitaries were cut into ˜3-mm pieces and then transferred to a flask containing HEPS buffer with trypsin and incubated at 37° C. Cells were triturated several times during this period. After dispersion, the cells were collected by centrifugation, wash with DMEM and placed into culture well. Cell cultures were maintained for 4 days at 37° with 8% CO2 added to the incubator atmosphere. After 4 days in culture, cells were washed with lactated Ringer's solution adjusted to pH 7.2-7.4 and then vehicle, peptide alone or peptide plus stimulator was added to media. Incubation time was 60-120 minutes after which media was removed from each well for GH determination. The GH RIA reagents were distributed by the NIH. Control data was collected from cell cultures treated with only the corresponding vehicle in the absence of peptide or stimulator. Control stimulated data was collected from cell cultures treated with stimulator alone in the absence of any peptide.

[7] = peptide antagonist 30 μg/ml + stimulator His-DTrp-Ala-Trp-DPhe-Lys-NH2 10 ng/ml

T1 sequence (Q92847 whole entry): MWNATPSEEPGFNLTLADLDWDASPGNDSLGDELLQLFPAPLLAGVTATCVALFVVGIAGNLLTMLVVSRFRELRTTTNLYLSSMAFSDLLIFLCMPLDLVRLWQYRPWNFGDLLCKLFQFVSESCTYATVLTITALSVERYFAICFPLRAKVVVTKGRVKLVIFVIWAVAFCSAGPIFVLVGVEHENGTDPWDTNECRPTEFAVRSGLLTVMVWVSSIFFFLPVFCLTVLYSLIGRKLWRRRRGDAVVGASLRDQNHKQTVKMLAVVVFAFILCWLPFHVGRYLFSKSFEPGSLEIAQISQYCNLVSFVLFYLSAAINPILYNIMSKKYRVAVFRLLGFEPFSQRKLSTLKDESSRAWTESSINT
T2 sequence (O08725 whole entry): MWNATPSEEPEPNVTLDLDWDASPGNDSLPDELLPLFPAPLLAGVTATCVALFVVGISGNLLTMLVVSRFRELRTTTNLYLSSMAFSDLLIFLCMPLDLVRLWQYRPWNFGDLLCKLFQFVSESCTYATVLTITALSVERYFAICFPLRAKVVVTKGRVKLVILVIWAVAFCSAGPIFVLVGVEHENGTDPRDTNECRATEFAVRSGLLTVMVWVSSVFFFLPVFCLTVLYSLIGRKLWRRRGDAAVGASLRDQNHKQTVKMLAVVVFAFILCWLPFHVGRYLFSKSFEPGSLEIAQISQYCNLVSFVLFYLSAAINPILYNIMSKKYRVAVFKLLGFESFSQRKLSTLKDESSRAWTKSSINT
T3 sequence (O08725 whole entry): as above

Compound: CSCC[C@H](NC(=O)CN)C(=O)N[C@@H](C)C(=O)N[C@H](C)C(=O)N[C@H](Cc1ccc2ccccc2c1)C(=O)N[C@@H](C)C(=O)N[C@@H](Cc1c[nH]c2ccccc12)C(=O)N[C@H](Cc1ccccc1)C(=O)N[C@@H](CCCCN)C(N)=O [#5, GlyMetAlaDAlaDβNalAlaTrpDPheLysNH2] (HELM PEPTIDE1{G.M.A.[dA].[O=C([C@@H](Cc1ccc2ccccc2c1)N[*:1])[*:2]].A.W.[dF].K.[am]}$$$$V2.0; N-terminus assumed)
- IC50 [1]: 296 nM
- Ki [1]: 166 nM
- % INH, Ghrelin/GHS Antagonist Receptor Activity [1]: 94%

Compound: CSCC[C@H](NC(=O)CN)C(=O)N[C@@H](C)C(=O)N[C@H](C)C(=O)N[C@H](Cc1ccc2ccccc2c1)C(=O)N[C@H](CCCCN)C(=O)N[C@@H](Cc1c[nH]c2ccccc12)C(=O)N[C@H](Cc1ccccc1)C(=O)N[C@@H](CCCCN)C(N)=O [#6a, GlyMetAlaDAlaDβNalDLysTrpDPheLysNH2] (HELM PEPTIDE1{G.M.A.[dA].[O=C([C@@H](Cc1ccc2ccccc2c1)N[*:1])[*:2]].[dK].W.[dF].K.[am]}$$$$V2.0; N-terminus assumed)
- IC50 [1]: 707 nM
- Ki [1]: 395 nM
- % INH, Ghrelin/GHS Antagonist Receptor Activity [1]: 89%

Compound: CSCC[C@H](NC(=O)CN)C(=O)N[C@@H](C)C(=O)NCC(=O)N[C@@H](CO)C(=O)N[C@@H](Cc1c[nH]c2ccccc12)C(=O)N[C@@H](Cc1ccccc1)C(=O)N[C@@H](CC(C)C)C(=O)N[C@@H](CO)C(=O)N1CCC[C@H]1C(=O)N[C@@H](CCC(=O)O)C(=O)N[C@@H](Cc1c[nH]cn1)C(=O)N[C@@H](CCC(N)=O)C(=O)N[C@@H](CCCNC(=N)N)C(=O)N[C@H](C(=O)N[C@@H](CCC(N)=O)C(=O)N[C@@H](CCC(N)=O)C(=O)N[C@@H](CCCNC(=N)N)C(=O)N[C@@H](CCCCN)C(=O)N[C@@H](CCC(=O)O)C(=O)N[C@@H](CO)C(=O)N[C@@H](CCCCN)C(=O)N[C@@H](CCCCN)C(=O)N1CCC[C@H]1C(=O)N1CCC[C@H]1C(=O)N[C@@H](C)C(=O)N[C@@H](CCCCN)C(=O)N[C@@H](CC(C)C)C(=O)N[C@@H](CCC(N)=O)C(=O)N1CCC[C@H]1C(=O)N[C@@H](CCCNC(=N)N)C(=O)O)C(C)C [#7]
- IC50 [1]: 284 nM
- Ki [1]: 159 nM
- % INH, Ghrelin/GHS Antagonist Receptor Activity [1]: 86%

Compound: DesaminoTyr-DTrp-Ser-Trp-DPhe-NH2 [10-DesaminoTyr-DTrp-Ser-Trp-DPhe-NH2]
- Stimulated GH release [2, 7]: 3258 ± 682 ng/mL

Compound: Gly-Met-Ala-Gly-Ser-(Dap-Palmityl)-Phe-Leu-Ser-Pro-Glu-His-NH2 (GMAGS[Dap(palmityl)]FLSPEH-NH2) [#6]
- spontaneous growth hormone secretion / plasma GH levels [3]: did not inhibit
- (cumulative) food intake [4]: did not inhibit GH secretion or decreased food intake

Compound: H[dW][dK]W[dF]K-NH2 [6-His-DTrp-DLys-Trp-DPhe-Lys-NH2]
- Stimulated GH release ([2]; peptide antagonist 1 μg/ml + stimulator His-DTrp-Ala-Trp-DPhe-Lys-NH2 10 ng/ml): 324 ± 181 ng/mL

Compound: Y[dW]AW[dF]-NH2 [reference compound]
- Stimulated Control GH release (stimulator *S alone) ([2]; Table 12, *S = Tyr-DTrp-Ala-Trp-DPhe-NH2 0.3 μg/ml): 2218 ± 194 ng/mL

Compound: Y[dW][dW]FF-NH2 [12-Tyr-DTrp-DTrp-Phe-Phe-NH2]
- Stimulated GH release [2, 7]: -167 ± 157 ng/mL

Compound: [dA][d2Nal]AW[dF]K-NH2 [reference compound]
- Stimulated Control GH release (stimulator alone) ([5]; DAla-DβNal-Ala-Trp-DPhe-Lys-NH2 0.3 μg, rat, Table 2): 1412 ± 400 ng/mL and 2253 ± 252 ng/mL
- Stimulated Control GH release (stimulator alone) ([5]; DAla-DβNal-Ala-Trp-DPhe-Lys-NH2 1 μg, rat, Table 2): 3214 ± 276 ng/mL and 3105 ± 429 ng/mL and 2406 ± 288 ng/mL and 2825 ± 134 ng/mL and 3104 ± 429 ng/mL
- Stimulated Control GH release (stimulator alone) ([5]; Table 4, Non-Pentobarbital Rats, DAla-DβNal-Ala-Trp-DPhe-Lys-NH2 10 μg): 72 ± 9 ng/mL
- Stimulated Control GH release (stimulator alone) ([5]; Table 4, Pentobarbital Rats, DAla-DβNal-Ala-Trp-DPhe-Lys-NH2 0.3 μg): 5052 ± 511 ng/mL
- Stimulated Control GH release (stimulator alone) ([5]; Table 4, Pentobarbital Rats, DAla-DβNal-Ala-Trp-DPhe-Lys-NH2 1 μg): 4950 ± 98 ng/mL
- Stimulated Control GH release (stimulator alone) ([6]; Table 6, DAla-DβNal-Ala-Trp-DPhe-Lys-NH2 10 ng/ml): 2420 ± 0 ng/mL and 2811 ± 229 ng/mL and 2385 ± 8 ng/mL
- Stimulated Control GH release (stimulator alone) ([6]; Table 9, DAla-DβNal-Ala-Trp-DPhe-Lys-NH2 1 ng/ml): 1232 ± 34 ng/mL
- Stimulated Control GH release (stimulator alone) ([6]; Table 10, DAla-DβNal-Ala-Trp-DPhe-Lys-NH2 1 ng/ml): 905 ± 6 ng/mL and 1153 ± 36 ng/mL and 1216 ± 26 ng/mL and 1461 ± 58 ng/mL and 1016 ± 18 ng/mL and 859 ± 4 ng/mL and 1060 ± 24 ng/mL
- Stimulated Control GH release (stimulator alone) ([6]; Table 11, DAla-DβNal-Ala-Trp-DPhe-Lys-NH2 1 ng/ml): 905 ± 6 ng/mL and 947 ± 11 ng/mL and 947 ± 33 ng/mL and 1016 ± 18 ng/mL
